Experimental data taken from US20060252786A1, “Nicotinic-opioid synergy for analgesia” (priority 2004, published 2006).
“And” between values parts separate entries of the source, which are not always exact repeats. Identical values can stand only once. Like-named read-outs stand apart in the source and are kept apart here.

How the values were obtained:
[1] = system: tail flick antinociception; settings: cited from earlier work
[2] = system: antinociceptive action of nicotine; settings: in vivo; cited from earlier work
[3] = system: α4β2 type nicotinic receptors; settings: binds more tightly; cited from earlier work
[4] = system: post-incisional pain, injured hind paw; settings: for Meas (von Frey response): IP, individual measurements
postoperative pain = system: postoperative pain
Protocol: (§1) This study was a randomized, double blind clinical trial with a 24 hour data collection period. The study was approved by the institutional review board at Columbia University. Written informed consent was obtained from all patients. Women between the ages of 18 and 50, scheduled to have uterine surgery (either myomectomy or hysterectomy) through a low transverse incision were eligible to be included. We chose to only study women in this preliminary study because animal studies have identified gender differences in nicotine's analgesic action 10-12. Patients were excluded who had smoked during the past year, had preexisting pain syndromes, hypertension, or any history of cardiovascular disease. All patients were American Society of Anesthesiologists class 1 or 2. The patients were instructed before surgery that they would be asked about their pain with a numerical analog score where 0 is no pain and 10 is the worst pain that they could imagine. […] No other medications were given in the preoperative period.
(§2) All patients were given a standardized anesthetic as follows: anesthetic premedication was administered in the operating room consisting of 1-2 μg/kg fentanyl and 1 mg vecuronium. Anesthesia was induced with propofol 2 mg/kg and succinylcholine 2 mg/kg. After intubation of the trachea, anesthesia was maintained with a fentanyl infusion of 1-2 μg/kg/hr and isoflurane titrated to adequate anesthetic depth by the clinical anesthesiologist, who was not aware of the treatment group. Muscle relaxation was effected with vecuronium. All patients were given dolasetron 12.5 mg prophylactically to prevent nausea and vomiting. At the completion of surgery, the anesthesiologist was given an opaque sealed container with either a nicotine nasal spray (3 mg—Nicotrol NS, Pharmacia, Peapack, N.J.) or saline nasal spray prepared according to a random number table by the research pharmacy. The study drug was administered by the anesthesiologist as 3 jets in each nostril (3 mg nicotine or an equal volume of saline) at a 45 degree angle after the muscle relaxant was reversed and while the surgeon was closing the fascia.
Five minutes after extubation and every 5 minutes thereafter for 60 minutes, the patient was asked to report the pain that they were experiencing with a numerical analog score from 0-10. A pain report was also obtained at 2 and 24 hours. A PCA pump was inserted into the patient's intravenous circuit prior to emergence from anesthesia. […] No other postoperative analgesic medications were used.
The data were analyzed per protocol. Two subjects from whom informed consent was obtained were not studied for postoperative pain. In one case because of a protocol violation in the standard anesthetic the patient was not randomized and in the second case, the anesthesiologist was not certain of study drug dose. The decision to exclude these patients was made prior to the postoperative period and this no data was obtained.
(§3) In previous studies using analog pain scores the standard deviation was approximately 2 numerical analog pain units. We calculated that in order to detect a difference of 2 numerical analog pain units, with α=0.05 and 80% power we would need to enroll 17 patients per group (StatMate, GraphPad software, San Diego, Calif., USA). 10 patients were enrolled per group as a pilot study requested by our IRB. […] The change in pain scores over time was determined with a One Way Analysis of Variance for repeated measures, where time was considered a continuous variable (Analyse-it for Microsoft Excel; Analyse-it Software, ltd., Leeds, England). All values are reported as mean (SD).

[5] = Protocol: as §1
as §2, with “fascia. […]” for “fascia.”
as §3, with “USA).” for “USA). 10 patients were enrolled per group as a pilot study requested by our IRB.”, “All values are reported as mean (SD).” left out

[6] = remark: listed apart in the source
Protocol: as §2
Blood pressure was measured with a non-invasive automatic oscillometric blood pressure cuff every 5 minutes for the first hour (Agilent Technologies, Andover, Mass.). Heart rate was monitored continuously with a pulse oximeter and electrocardiographic leads and recorded every five minutes for the first hour (Agilent Technologies, Andover, Mass.). All testing was conducted by the same investigator (D.D.). Both the investigator recording data and the nurse administering medication were blinded to treatment group.
as §3

post-incisional pain = system: post-incisional pain
Protocol: Each of these studies will be nearly identical to the original study (FIG. 5). However, the studies will look at the following dosing paradigms: • 1. Animals will be randomized to receive nicotine 0.25 to 1.5 mg/kg, or placebo 2 hours prior to the hind-paw surgery, or 2 hours after the hind paw surgery (reproducing the original study). […] The doses will be determined in a dose-finding portion of the interaction study. The interaction surface will be modeled and tested to identify any benefit from preoperative administration of nicotine. • 2. […] The study will help to document whether there is any benefit to maintaining nicotine with a constant infusion vs. a simple bolus injection. Expected Results and Potential Issues

[7] = nicotine nasal spray 3 mg, PCA morphine
TNF-α, IL2 and IL6 = settings: anticipated; nicotine 0-5 mg/kg after surgical incision
[8] = 3 mg intranasally, non-smoking volunteers; cited from earlier work
[9] = cited from earlier work
[10] = 3 mg intranasally (Guthrie, 1999)

## CCN1C[C@]2(COC(=O)c3ccccc3N3C(=O)C[C@H](C)C3=O)CC[C@H](OC)[C@@]34[C@@H]5C[C@H]6[C@H](OC)[C@@H]5[C@](O)(C[C@@H]6OC)[C@](O)([C@@H](OC)[C@H]23)[C@@H]14 [MLA]
[1]; tail flick assay
  effect on the antinociceptive response to nicotine: no effect

## C[N+](C)(C)CCCCCC[N+](C)(C)C [hexamethonium]
[2]
  effect on the antinociceptive action of nicotine: no effect

## CNCC/C=C/c1cccnc1 [metanicotine]
[3]
  binding selectivity for α4β2 over α3β4, α7 or muscle type nicotinic receptors: over 10,000 times
[1]; dose of 10 mg/kg
  antinociception in the tail flick assay: midrange antinociception

## CN1CC[C@]23c4c5ccc(O)c4O[C@H]2[C@@H](O)C=C[C@H]3[C@H]1C5 [morphine]
[4]; 129J strain relatively insensitive to morphine
  antinociceptive efficacy alone: relatively ineffective alone
[4]; Morphine 0.1 mg/kg, Nicotine 0
  Meas (von Frey response): 1.8 gms (2×) and 0.75 gms (2×) and 2.95 gms
[4]; Morphine 1 mg/kg, Nicotine 0
  Meas (von Frey response): 1.95 gms (3×) and 1.7 gms and 0.9 gms and 5.2 gms (2×) and 5.95 gms and 0.75 gms and 2.95 gms
[4]; Morphine 5 mg/kg, Nicotine 0
  Meas (von Frey response): 0.9 gms (3×) and 1.1 gms (2×) and 7.9 gms (3×) and 7.65 gms (2×)
[4]; Morphine 10 mg/kg, Nicotine 0
  Meas (von Frey response): 1.1 gms (3×) and 0.45 gms and 2.15 gms
[4]; Morphine 13 mg/kg, Nicotine 0
  Meas (von Frey response): 4.65 gms (2×) and 7.65 gms (3×)
[4]; Morphine 20 mg/kg, Nicotine 0
  Meas (von Frey response): 7.9 gms and 4.9 gms (3×) and 8.1 gms
Tolerance to morphine; morphine 2 mg/kg/hr subcutaneous pump, nicotine 1 mg/kg IP or saline, heat withdrawal latency, 18 hour period
  reduction in peak effect (plateau of analgesic action): 64±14%

## CN1CCCC1c1cccnc1 (stereo not drawn) [nicotine]
Postoperative pain; 20 non-smoking women after gynecological surgery, reduced from 8 (placebo)
  peak pain scores (VAS, out of 10): 5
Postoperative pain; after surgery, nicotine nasal spray 3 mg, PCA morphine
  time at which peak pain score occurred: 35 min
Postoperative pain; nicotine nasal spray 3 mg at end of surgery, PCA morphine available, first hour, mean (SD)
  peak pain score (numerical analog score 0-10): 5.3 (1.6) units
Postoperative pain; nicotine nasal spray 3 mg single dose, PCA morphine, mean (SD), P<0.01 vs placebo
  pain score twenty-four hours after emergence: 1.5 (0.5)
Postoperative pain; nicotine nasal spray just prior to emergence, P<0.001
  pain scores during the first hour compared with placebo: lower pain scores at all times during the first hour
Postoperative pain; preliminary data set, placebo 6.5
  average VAS score in the first hour: approximately 4.5
Postoperative pain; single 3 mg intranasal dose, last assessment in the study
  duration of analgesic effect: at least 24 hours
[5]; nicotine nasal spray 3 mg, difference vs placebo not statistically significant
  morphine used during the first 24 hours after surgery: 41 ± 9 mg
[5]; nicotine nasal spray 3 mg, mean (SD), P<0.05 vs control
  cumulative morphine utilization during the first hour: 6 (5) mg
[5]; nicotine nasal spray 3 mg, p<0.01
  overall morphine usage compared to the placebo group: about half
[5]; nicotine vs placebo
  reduction in morphine requirement in the first hour: 50%
[6]; first hour after surgery
  systolic blood pressure compared with placebo: lower systolic blood pressure
[6]; first postoperative hour
  diastolic blood pressure compared with placebo: no difference
  heart rate compared with placebo: no difference
[6]; first postoperative hour, mean (SD), placebo 122 (3), P<0.001
  systolic blood pressure: 105 (3)
[6]; pilot study
  hemodynamic consequences of a single dose of nicotine: No hemodynamic consequences have been identified
post-incisional pain; 2 hours prior to hind-paw surgery
  benefit from pre-operative administration (expected): no benefit
post-incisional pain; micro-osmotic pump vs bolus injection
  analgesic response with constant infusion (expected): more stable level of analgesic response
[7]
  incidence of nausea and vomiting compared with placebo: did not differ
[4]; Morphine 0, Nicotine 0.5 (mg)
  Meas (von Frey response): 0 gms (4×) and 0.25 gms
[4]; Morphine 0, Nicotine 1 (mg)
  Meas (von Frey response): 1.95 gms (2×) and 2.7 gms (3×)
[4]; Morphine 0, Nicotine 1.5 (mg)
  Meas (von Frey response): 2.7 gms (2×) and 4.9 gms (2×) and 4.65 gms
[4]; Morphine 0, Nicotine 2 (mg)
  Meas (von Frey response): 2.7 gms (3×) and 4.9 gms (2×)
[4]; Morphine 0, Nicotine 3 (mg), upper threshold 15
  Meas (von Frey response): 15 gms
[4]; Morphine 0, Nicotine 5 (mg), upper threshold 15
  Meas (von Frey response): 15 gms
[4]; single IP injection
  ED20 for primary hyperalgesia: 1.5 mg/kg
Tolerance to morphine; morphine infusion 2 mg/kg/hr, data not shown
  peak withdrawal latency compared with saline group: higher
Tolerance to morphine; nicotine 1.5 mg/kg, morphine continuous infusion 18 hours, P<0.001
  tolerance to morphine after pretreatment with a single dose of nicotine: Tolerance is reduced
TNF-α, IL2 and IL6
  levels of TNF-α, IL2 and IL6 compared with placebo group (expected): lower levels
[8]
  average increase in systolic blood pressure: 7 mM of mercury
  change in diastolic blood pressure: no change
  change in heart rate: no change
[9]; [10]
  arterial peak concentration: 100 µM
  steady state venous concentration: 30 µM
[9]; intranasal
  time to peak effect: five
  time until effect is dissipated: about one
